Experimental data published in US20240385180A1, “PRODUCTION OF ORGANOID DERIVED FROM CTC OF SMALL CELL LUNG CANCER PATIENT, AND IGF1R INHIBITOR AS A MOLECULAR TARGET DRUG FOR SMALL CELL LUNG CANCER” (KEIO UNIVERSITY, priority 2021, published 2024).

Columns and labels:
[1] = tested on: IGF-dependent small cell lung cancer organoids; experiment: Effect of IGF1R inhibitor in vitro: number of living cells (CellTiter-Glo); format: cell-based, human; conditions: 0.1, 1, 10, 100 μM in complete medium, fifth day after adding the drug, vs DMSO
Method: An IGF1R inhibitor was added to the medium of small cell lung cancer organoids, and the effect on the growth of small cell lung cancer organoids was investigated. As small cell lung cancer organoids, a plurality of types of each of IGF-dependent small cell lung cancer organoid lines and IGF-independent small cell lung cancer organoid lines were used. Furthermore, linsitinib (CAS number: 867160-71-2) was used as an IGF1R inhibitor. In addition, the number of living cells was measured using a commercially available kit (product name “CellTiter-Glo”, Promega). A small cell lung cancer organoid was dissociated into a single cell using TrypLE Express (Thermo Fisher Scientific), and further filtered using a 20 μm cell strainer. Then, 3×10^3 per well cells were seeded and cultured in complete medium added with 0.1, 1, 10, and 100 μM lincitinib. In addition, as a control, a group in which dimethyl sulfoxide (DMSO), which was used as a solvent for linsitinib, was added was also prepared. The number of living cells was measured on the fifth day after adding the drug.

[2] = tested on: KOR317 line (YAP1 positive subtype, IGF-dependent small cell lung cancer organoid); experiment: Effect of IGF1R inhibitor in vivo: tumor volume in mice transplanted with KOR317 line; conditions: KOR317 (YAP1-positive, IGF-dependent) subcutaneous in NOD/Shi-scid, IL-2Rγ mice; 50 mg/kg once a day, 5 days a week, 5 weeks; vs vehicle
Method: (§1) Specifically, first, small cell lung cancer organoids (KOR317 line and KOR457 line) were peeled off from Matrigel (registered trademark) using cell recovery solution (BD Bioscience). The peeled small cell lung cancer organoids were kept on ice for 30 minutes while being loosened by pipetting every 10 minutes. Next, approximately 1×10^5 of respective small cell lung cancer organoids was resuspended in about 50 μL of Matrigel, and the respective suspensions was subcutaneously injected into mice. As the mice, 6-10 weeks old NOD/Shi-scid, IL-2Rγ mice were used. Once the tumor diameter (long×short×height/2) was approximately 100-150 mm^3, the subjects were randomly divided into a drug administration group and a placebo treatment group. Each group was set as n≥3. Subsequently, linsitinib (50 mg/kg) was administered to the drug administration group, and vehicle was administered to the placebo treatment group once a day, 5 days a week, for a total of 5 weeks. Linsitinib was dissolved in 30% PEG400-0.5% tween80-5% propylene glycol (vehicle) and administered. Tumor diameter (major axis×short axis×height/2) was measured once a week.

[3] = tested on: KOR457 line (ASCL1 positive subtype, IGF-independent small cell lung cancer organoid); experiment: Effect of IGF1R inhibitor in vivo: tumor volume in mice transplanted with KOR457 line; conditions: KOR457 (ASCL1-positive, IGF-independent) subcutaneous in NOD/Shi-scid, IL-2Rγ mice; 50 mg/kg once a day, 5 days a week, 5 weeks; vs vehicle
Method: as §1

[4] = tested on: IGF-dependent small cell lung cancer organoids; experiment: In vitro apoptosis assay (Annexin V-FITC / propidium iodide flow cytometry); format: cell-based, human; conditions: 1 μM, cultured for 5 days, vs DMSO
Method: An IGF1R inhibitor was added to the medium of small cell lung cancer organoids, and the occurrence of apoptosis was measured. First, a small cell lung cancer organoid was dissociated into a single cell using TrypLE Express (Thermo Fisher Scientific), further, filtered using a 20 μm cell strainer. Next, add 5×10^4 cells per well were seeded to a […], and cultured for 5 days in the presence of 1 μM IGF1R inhibitor or 1 μM FGFR inhibitor. DMSO was added to the control cell culture medium. Subsequently, using a commercially available kit (product name “TACS Annexin V-FITC Apoptosis Detection Kit”, R&D System), the induction of apoptosis was measured by flow cytometry using the BD FACSCalibur system (Becton Dickinson). FIG. 10 is a graph showing the results of the flow cytometry. In FIG. 10, the propidium iodide-positive and Annexin V-positive cells are the cells in which apoptosis was induced.

Compound: C[C@]1(O)C[C@@H](c2nc(-c3ccc4ccc(-c5ccccc5)nc4c3)c3c(N)nccn32)C1 [IGF1R inhibitor, linsitinib]
- growth of organoids (number of living cells) [1]: inhibits the growth
- tumor growth (tumor volume over time) [2]: tumor growth was suppressed
- tumor growth (tumor volume over time) [3]: no effect
- induction of apoptosis (propidium iodide-positive and Annexin V-positive cells) [4]: induces apoptosis
